Experimental data from patent US6767738B1, “Method of isolating adult mammalian CNS-derived progenitor stem cells using density gradient centrifugation” (The Salk Institute for Biological Studies, priority 1999, dated 2004).

Experiments:
[1] = system: optic nerve low-buoyancy cells; assay: Neuron generation from optic nerve low-buoyancy cells; type: cell-based, rat; conditions: 14 days high FGF-2, then 14 days differentiation; mean +/- s.e.m., n=5
From the text: Tissue dissection: Three areas were dissected from adult rat brains as follows. Rats (170-190 g Fisher 344 males or females, Harlan) were deeply anesthetized with a mixture of ketamine, xylazine, and acepromazine. Animals were decapitated and whole brains removed. First, ˜1.5 mm of each optic nerve were harvested rostral to, but not including, the optic chiasma. The brain was then bisected longitudinally and each hippocampal lobe separated from the overlaying cortical white matter using the natural separation line along the alveus hippocampus. The white matter of the fimbria and subiculum was removed as much as possible. Some white matter remained. Finally, a 1.5 mm wide cortical ribbon containing parietal and frontal segments was dissected longitudinally, proximal to the central fissure. The pial and callosal surfaces were trimmed from each cortical ribbon to remove a majority of the meninges and white matter. […]
To determine if there were progenitors in the optic nerve with a latent ability to generate neurons, optic nerve was harvested, dissociated and fractioned. […] On day 28, cultures were calculated for the presence of neurons (β Tubulin) and those neurons present were scored for BrdU-immunoreactivity. Although many glia rapidly differentiated in the primary culture, clusters of proliferative precursor-like calls were readily detected. […]

clonal stem cells (AP14) = assay: RT-PCR analysis of p21, NeuroD, trk and p75NGFR mRNA in stem cell cultures; type: cell-based, rat
Experimental: Cell Culture. For proliferating conditions, clonal stem cells (AP14) were cultured in Dulbecco's Modified Eagles Medium/Ham's F12 (DMEM/F12, 1:1) containing N2 supplement (Gibco BRL, Gaithersburg, Md.) and 20 ng/ml rhFGF-2 (provided by A. Baird, Prizm Pharmaceuticals Inc., La Jolla, Calif.). Culture dishes (Becton Dickinsin Labware, Lincoln Park, N.J.) were coated with polyomithine and mouse laminin as previously described by Ray, et al., Proliferation, differentiation and long-term culture of primary hippocampal neurons, Proc Natl Acad Sci USA 90:3602-3606 (1993). For differentiation experiments, cells were plated into polyornithine/laminin coated glass chamber slides (Nunc, Naperville, Ill.) at a density of 2.5—103 per cm2. The cells were incubated for 24 hrs in normal N2 medium containing 20 ng/ml FGF-2, and then the medium was replaced by N2 medium containing 0.5% […] (FBS) and 0.01% DMSO (control solvent) or […] all-trans retinoic acid (Sigma, St. Louis, Mo.). For further differentiation, the medium was replaced by N2 medium containing 0.5% FBS and one of the following: sterile water (control solvent), mouse 2.55 NGF (50 ng/ml, Boehringer Mannheim, Indianapolis, Ind.), rhBDNF (20 ng/ml, Alomone Labs, Jerusalem, Israel), rhNT-3 (40 ng/ml, Genentech, South San Francisco, Calif.). The medium was replaced every two days. For inhibition of the tyrosine kinase activity of the Trk receptors, K-252a (100 nM, Calbiochem, San Diego, Calif.) was added to the medium.
Reverse Transcription-PCR Analysis. Total RNA from stem cells was isolated using RNeasy Total RNA Kits (Qiagen, Chatsworth, Calif.) according to manufacturer's instructions. Fifty nanograms of total RNA was reverse transcribed using avian myeloblastosis virus reverse transcriptase (Promega, Madison, Wis.) with random hexamers ([…]) as primers in a […] reaction mixture. For PCR amplification, two sets of specific oligonucleotide pairs ([…]) were used: one directed to the transcript of interest, and one for a constitutively expressed transcript, either ribosomal protein L27 or L27a. Reactions were performed in a […] reaction mixture containing 10 mM Tris-Cl (pH 8.4), 50 mm KCl, 1.5 mM MgC12, […] each of the four dNTPs, 2 mCi of [a-32P]dCTP and 5 units of Taq polymerase (Promega) using a thermal cycler (Perkin-Elmer, Foster City, Calif.) with a regimen of 1 min at 94° C., 2 min at 60° C. (55° C. for trk receptors) and 2 min at 72° C. for 23 cycles Fifty microliters of each reaction was analyzed by electrophoresis on 8% polyacrylamide gels followed by autoradiography. […] Under these conditions, the L27 amplification product was directly proportional to the amount of input RNA, up to 50 ng total RNA. Oligonucleotide primers used are as follows: […]

Molecule	β Tubulin-positive neurons, of the total population [1]	p21 mRNA (clonal stem cells (AP14); RA treatment, peaked after roughly 5 days)	trkA mRNA (clonal stem cells (AP14); following RA treatment)	trkB mRNA (clonal stem cells (AP14); following RA treatment)	trkC mRNA (clonal stem cells (AP14); following RA treatment)	p75NGFR mRNA (clonal stem cells (AP14); following RA treatment, 7-day time course)	expression of NeuroD mRNA (clonal stem cells (AP14); within 24 hrs of FGF-2 withdrawal and RA treatment, 6 days)
FGF-2: basic fibroblast growth factor, human recombinant, prepared in E. coli	0.8% +/− 0.3						
CC1=C(/C=C/C(C)=C/C=C/C(C)=C/C(=O)O)C(C)(C)CCC1 [RA, all-trans retinoic acid]		significant yet gradual increase	increased gradually and reached a plateau after 5 days	increased gradually and reached a plateau after 5 days	increased gradually and reached a plateau after 5 days	dramatically increased	increased and remained elevated
